{
  "source": "patent US20100190747A1",
  "about": "“Fused ring compound and use thereof” (priority 2009, published 2010)",
  "data": [
    {"molecular_target": "T1, delta-5-desaturase (Rattus norvegicus, UniProt Q920R3)", "T1 construct": "the microsomal fraction of a rat river (10 μl), which had been diluted to 3 mg/ml; from tissue; host or cells: rat liver microsomal fraction", "T1 sequence (Q920R3 whole entry)": "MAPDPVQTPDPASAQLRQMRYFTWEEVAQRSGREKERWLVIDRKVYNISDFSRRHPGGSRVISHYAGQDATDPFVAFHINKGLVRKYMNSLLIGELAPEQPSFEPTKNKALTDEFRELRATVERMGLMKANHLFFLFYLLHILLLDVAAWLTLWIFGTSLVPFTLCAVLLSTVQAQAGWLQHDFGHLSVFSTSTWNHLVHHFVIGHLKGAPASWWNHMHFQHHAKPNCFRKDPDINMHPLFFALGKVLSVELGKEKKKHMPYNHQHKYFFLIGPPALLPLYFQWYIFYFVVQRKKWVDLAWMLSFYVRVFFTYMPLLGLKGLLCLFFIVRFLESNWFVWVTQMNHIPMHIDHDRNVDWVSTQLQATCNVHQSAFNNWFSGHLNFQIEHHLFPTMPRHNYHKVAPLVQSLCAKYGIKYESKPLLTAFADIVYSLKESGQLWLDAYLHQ", "assay": "Inhibitory activity on delta-5-desaturase (rat liver microsomal fraction, 14C-eicosatrienoic acid, TLC)", "format": "biochemical", "details": "test compound at 10 μM, room temperature, 120 minutes", "experimental": "An inhibitory activity of a test compound on delta-5-desaturase was measured according to the method described herein below. To a DMSO solution of the test compound which had been previously prepared, secondary dilution was carried out by using a buffer (300 mM NaH2PO4 [pH 7.4], 450 mM KCl, 30 mM NaF, 9 mM MgCl2, 4.5 mM glutathione [reduced form], 0.3% BSA [fatty acid free, SIGMA]). This diluent compound (10 μl) was added in a 96-well deep well block made of polypropylene, and then the microsomal fraction of a rat river (10 μl), which had been diluted to 3 mg/ml by using a microsome buffer (10 mM Tris-HCl [pH 7.4], 1 mM EDTA, and 250 mM sucrose), was added thereto. The enzyme reaction was initiated by adding 10 μl of 9 mM NADH, 9 mM ATP, 0.9 mM CoA and 10 μCi/ml (8E,11E,14E)-(1-^14C)eicosa-8,11,14-trienoic acid (PerkinElmer Inc.). The enzyme reaction was carried out at room temperature for 120 minutes, and then terminated by addition of 2.5 M NaOH (10 μl). Upon the completion of the reaction, the plate was covered with plate seal and incubated overnight in a dry heater of which temperature was set at 55° C. for saponification. Based on Bligh & Dyer method which had been described in a known document, Canadian Journal of Biochemistry and Physiology (Can. J. Biochem. Physiol.), Vol. 37, page 911, 1959), the solvent extraction of fatty acid was carried out by adding 200 μl of formic acid:methanol:chloroform (1:6:3), keeping the mixture as a single layer for a while, stirring the mixture to a sufficient level, and adding 120 μl of pure water to separate the mixture into two layers. 10 μl of the bottom chloroform layer was spotted on a reverse phase TLC plate (RP-18, 1154230001, Merck Japan, Ltd.) and then developed with acetonitrile:pure water:acetic acid (95:4.5:0.5). The TLC plate obtained after drying was transferred to an Imaging Plate (Fuji Photo Film Co., Ltd.) for more than 5 hours. Detection was carried out by using BAS-5000 (Fuji Photo Film Co., Ltd.). Numerization of thus-obtained image was carried out by using Multi Gauge Ver 2.3 (Fuji Photo Film Co., Ltd.) and an inhibitory ratio (%) of the test compound at 10 μM on delta-5-desaturase was obtained.", "units": {"inhibition at 10 µM": "%"}, "values": [
      {"smiles": "CC(C)Oc1nc2[nH]ccc2c(=O)n1-c1ccc(OCC(F)(F)F)c(F)c1", "note": "[Example 316, 3-[3-Fluoro-4-(2,2,2-trifluoroethoxy)phenyl]-2-(1-methylethoxy)-3,7-dihydro-4H-pyrrolo[2,3-d]pyrimidin-4-one]", "inhibition at 10 µM": 103},
      {"smiles": "O=c1c2[nH]ccc2nc(SCCCCO)n1-c1ccc(OCC(F)(F)F)cc1", "note": "[Example 119, 2-[(4-Hydroxybutyl)sulfanyl]-3-[4-(2,2,2-trifluoroethoxy)phenyl]-3,5-dihydro-4H-pyrrolo[3,2-d]pyrimidin-4-one]", "inhibition at 10 µM": 102},
      {"smiles": "O=c1c2[nH]ccc2nc(SCCO)n1-c1ccc(OCC2CC2)cc1", "note": "[Example 144, 3-[4-(Cyclopropylmethoxy)phenyl]-2-[(2-hydroxyethyl)sulfanyl]-3,5-dihydro-4H-pyrrolo[3,2-d]pyrimidin-4-one]", "inhibition at 10 µM": 101},
      {"smiles": "O=c1c2[nH]ccc2nc(SC(F)F)n1-c1ccc(OCC(F)(F)F)cc1", "note": "[Example 129, 2-[(Difluoromethyl)sulfanyl]-3-[4-(2,2,2-trifluoroethoxy)phenyl]-3,5-dihydro-4H-pyrrolo[3,2-d]pyrimidin-4-one]", "inhibition at 10 µM": 101},
      {"smiles": "CC(C)COc1nc2c(c(=O)n1-c1ccc(OCC(F)(F)F)cc1)CC(=O)N2", "note": "[Example 318, 2-(2-Methylpropoxy)-3-[4-(2,2,2-trifluoroethoxy)phenyl]-5,7-dihydro-3H-pyrrolo[2,3-d]pyrimidine-4,6-dione]", "inhibition at 10 µM": 103},
      {"smiles": "CCOc1nc2[nH]ccc2c(=O)n1-c1ccc(OCC(F)(F)F)cc1", "note": "[Example 209, 2-Ethoxy-3-[4-(2,2,2-trifluoroethoxy)phenyl]-3,7-dihydro-4H-pyrrolo[2,3-d]pyrimidin-4-one]", "inhibition at 10 µM": 99},
      {"smiles": "CSc1nc2cc[nH]c2c(=O)n1-c1ccc(OCC(F)(F)F)cc1", "note": "[Example 121, 2-(Methylsulfanyl)-3-[4-(2,2,2-trifluoroethoxy)phenyl]-3,5-dihydro-4H-pyrrolo[3,2-d]pyrimidin-4-one]", "inhibition at 10 µM": 100},
      {"smiles": "CCS(=O)(=O)c1nc2[nH]ccc2c(=O)n1-c1ccc(OCC(F)(F)F)cc1", "note": "[Example 207, 2-(Ethylsulfonyl)-3-[4-(2,2,2-trifluoroethoxy)phenyl]-3,7-dihydro-4H-pyrrolo[2,3-d]pyrimidin-4-one]", "inhibition at 10 µM": 101},
      {"smiles": "CCOCCOCCSc1nc2[nH]ccc2c(=O)n1-c1ccc(OCC(F)(F)F)cc1", "note": "[Example 192, 2-{[2-(2-Ethoxyethoxy)ethyl]sulfanyl}-3-[4-(2,2,2-trifluoroethoxy)phenyl]-3,7-dihydro-4H-pyrrolo[2,3-d]pyrimidin-4-one]", "inhibition at 10 µM": 101},
      {"smiles": "O=c1c2[nH]ccc2nc(SCCCOC2CCOCC2)n1-c1ccc(OCC(F)(F)F)cc1", "note": "[Example 158, 2-{[3-(Tetrahydro-2H-pyran-4-yloxy)propyl]sulfanyl}-3-[4-(2,2,2-trifluoroethoxy)phenyl]-3,5-dihydro-4H-pyrrolo[3,2-d]pyrimidin-4-one]", "inhibition at 10 µM": 99},
      {"smiles": "O=c1c2[nH]ccc2nc(SCCCS(=O)(=O)NC2CC2)n1-c1ccc(OCC(F)(F)F)cc1", "note": "[Example 108, N-cyclopropyl-3-({4-oxo-3-[4-(2,2,2-trifluoroethoxy)phenyl]-4,5-dihydro-3H-pyrrolo[3,2-d]pyrimidin-2-yl}sulfanyl)propane-1-sulfonamide]", "inhibition at 10 µM": 101},
      {"smiles": "O=C(CCCSc1nc2cc[nH]c2c(=O)n1-c1ccc(OCC(F)(F)F)cc1)N1CCC(O)C1", "note": "(stereo not shown) [Example 97]", "inhibition at 10 µM": 100},
      {"smiles": "CC(C)OCC(O)CSc1nc2cc[nH]c2c(=O)n1-c1ccc(OCC(F)(F)F)cc1", "note": "(stereo not shown) [Example 130, 2-{[2-Hydroxy-3-(1-methylethoxy)propyl]sulfanyl}-3-[4-(2,2,2-trifluoroethoxy)phenyl]-3,5-dihydro-4H-pyrrolo[3,2-d]pyrimidin-4-one]", "inhibition at 10 µM": 100},
      {"smiles": "O=C(CCCSc1nc2cc[nH]c2c(=O)n1-c1ccc(OCC(F)(F)F)cc1)NCC(F)(F)F", "note": "[Example 75, 4-({4-Oxo-3-[4-(2,2,2-trifluoroethoxy)phenyl]-4,5-dihydro-3H-pyrrolo[3,2-d]pyrimidin-2-yl}sulfanyl)-N-(2,2,2-trifluoroethyl)butanamide]", "inhibition at 10 µM": 99},
      {"smiles": "COCCOCCCSc1nc2c(c(=O)n1-c1ccc(OCC(F)(F)F)cc1)CC(=O)N2", "note": "[Example 299, 2-{[3-(2-Methoxyethoxy)propyl]sulfanyl}-3-[4-(2,2,2-trifluoroethoxy)phenyl]-5,7-dihydro-3H-pyrrolo[2,3-d]pyrimidine-4,6-dione]", "inhibition at 10 µM": 100},
      {"smiles": "O=c1c2cc[nH]c2nc(OCC2CC2)n1-c1ccc(OCC(F)(F)F)cc1", "note": "[Example 226, 2-(Cyclopropylmethoxy)-3-[4-(2,2,2-trifluoroethoxy)phenyl]-3,7-dihydro-4H-pyrrolo[2,3-d]pyrimidin-4-one]", "inhibition at 10 µM": 102},
      {"smiles": "O=c1c2cc[nH]c2nc(OCC(F)F)n1-c1ccc(OCC(F)(F)F)cc1", "note": "[Example 244, 2-(2,2-Difluoroethoxy)-3-[4-(2,2,2-trifluoroethoxy)phenyl]-3,7-dihydro-4H-pyrrolo[2,3-d]pyrimidin-4-one]", "inhibition at 10 µM": 101},
      {"smiles": "N#CCCNC(=O)CCCSc1nc2cc[nH]c2c(=O)n1-c1ccc(OCCC(F)(F)F)cc1", "note": "[Example 90, N-(2-cyanoethyl)-4-({4-oxo-3-[4-(3,3,3-trifluoropropoxy)phenyl]-4,5-dihydro-3H-pyrrolo[3,2-d]pyrimidin-2-yl}sulfanyl)butanamide]", "inhibition at 10 µM": 99},
      {"smiles": "O=C(CCCSc1nc2cc[nH]c2c(=O)n1-c1ccc(OCC(F)(F)F)cc1)NC1CC1", "note": "[Example 76, N-cyclopropyl-4-({4-oxo-3-[4-(2,2,2-trifluoroethoxy)phenyl]-4,5-dihydro-3H-pyrrolo[3,2-d]pyrimidin-2-yl}sulfanyl)butanamide]", "inhibition at 10 µM": 99},
      {"smiles": "O=C1Cc2c(nc(SCC(F)(F)F)n(-c3ccc(OCC(F)(F)F)cc3)c2=O)N1", "note": "[Example 298, 3-[4-(2,2,2-Trifluoroethoxy)phenyl]-2-[(2,2,2-trifluoroethyl)sulfanyl]-5,7-dihydro-3H-pyrrolo[2,3-d]pyrimidine-4,6-dione]", "inhibition at 10 µM": 101},
      {"smiles": "CCOCCOCCSc1nc2cc[nH]c2c(=O)n1-c1ccc(OCC2CC2)c(Cl)c1", "note": "[Example 163, 3-[3-Chloro-4-(cyclopropylmethoxy)phenyl]-2-{[2-(2-ethoxyethoxy)ethyl]sulfanyl}-3,5-dihydro-4H-pyrrolo[3,2-d]pyrimidin-4-one]", "inhibition at 10 µM": 99},
      {"smiles": "CCOCCOCCSc1nc2cc[nH]c2c(=O)n1-c1ccc(OCC2CC2)cc1", "note": "[Example 142, 3-[4-(Cyclopropylmethoxy)phenyl]-2-{[2-(2-ethoxyethoxy)ethyl]sulfanyl}-3,5-dihydro-4H-pyrrolo[3,2-d]pyrimidin-4-one]", "inhibition at 10 µM": 98},
      {"smiles": "Cc1c[nH]c2c(=O)n(-c3ccc(OCC(F)(F)F)cc3)c(SCCCC(=O)NCCC#N)nc12", "note": "[Example 172, N-(2-cyanoethyl)-4-({7-methyl-4-oxo-3-[4-(2,2,2-trifluoroethoxy)phenyl]-4,5-dihydro-3H-pyrrolo[3,2-d]pyrimidin-2-yl}sulfanyl)butanamide]", "inhibition at 10 µM": 99},
      {"smiles": "CCOCCSc1nc2cc[nH]c2c(=O)n1-c1ccc(OCC(F)(F)F)cc1", "note": "[Example 74, 2-[(2-Ethoxyethyl)sulfanyl]-3-[4-(2,2,2-trifluoroethoxy)phenyl]-3,5-dihydro-4H-pyrrolo[3,2-d]pyrimidin-4-one]", "inhibition at 10 µM": 101},
      {"smiles": "O=c1c2[nH]ccc2nc(SCCO)n1-c1ccc(OCC(F)(F)F)cc1", "note": "[Example 127, 2-[(2-Hydroxyethyl)sulfanyl]-3-[4-(2,2,2-trifluoroethoxy)phenyl]-3,5-dihydro-4H-pyrrolo[3,2-d]pyrimidin-4-one]", "inhibition at 10 µM": 102},
      {"smiles": "O=c1c2cc[nH]c2nc(SC(F)(F)F)n1-c1ccc(OCC(F)(F)F)cc1", "note": "[Example 253, 3-[4-(2,2,2-Trifluoroethoxy)phenyl]-2-[(trifluoromethyl)sulfanyl]-3,7-dihydro-4H-pyrrolo[2,3-d]pyrimidin-4-one]", "inhibition at 10 µM": 98},
      {"smiles": "O=c1c2[nH]ccc2nc(SCCN2CCOCC2)n1-c1ccc(OCC(F)(F)F)cc1", "note": "[Example 111, 2-[(2-Morpholin-4-ylethyl)sulfanyl]-3-[4-(2,2,2-trifluoroethoxy)phenyl]-3,5-dihydro-4H-pyrrolo[3,2-d]pyrimidin-4-one]", "inhibition at 10 µM": 98},
      {"smiles": "O=C1Cc2c(nc(Sc3ccc(F)cc3)n(-c3ccc(OCC(F)(F)F)cc3)c2=O)N1", "note": "[Example 336, 2-[(4-Fluorophenyl)sulfanyl]-3-[4-(2,2,2-trifluoroethoxy)phenyl]-5,7-dihydro-3H-pyrrolo[2,3-d]pyrimidine-4,6-dione]", "inhibition at 10 µM": 101}
    ]}
  ]
}
